Entries after “also recorded” stand apart in the source; their conditions may differ.

One assay deals with microorganisms (e.g., bacteria, yeasts, fungi). Kind of assay: Targeting peptide binding to target microorganisms (Table 3). To be noted: microorganism the targeting peptide binds; binding in aqueous buffers varied by peptide solubility, preferably 1x PBS.
Consider “1T-14 (ALAGLAGLISGK; Peptide with targeting and/or antimicrobial activity) [Peptide 1T-14]”, for which the “Target(s)” value is reported as “S. mutans; also recorded: S. aureus; also recorded: S. epidermidis; also recorded: C. xerosis”.
For “1T-28 (VSRDEAMEFIDREWTTLQPAGKSHA; Peptide with targeting and/or antimicrobial activity) [Peptide 1T-28]”, the “Target(s)” value was “P. aeruginosa”.
For “1T-122 (GAIPDPVTHRVDWEEDHQTRPSR; Peptide with targeting and/or antimicrobial activity) [Peptide 1T-122]”, the “Target(s)” value was “S. mitis”.
With “1T-170 (AYGKVFSMDIMLSENDKLIVLRISHHSAWH; Peptide with targeting and/or antimicrobial activity) [Peptide 1T-170]”, the “Target(s)” value is “P. gingivalis”.
As to “1T-43 (DRCLSVLSWSPPKVSPLI; Peptide with targeting and/or antimicrobial activity) [Peptide 1T-43]”, the “Target(s)” value is listed as “C. jeikium; also recorded: P. aeruginosa”.
For “PF-016 (RKQYDDLSFNFLY; Peptide with targeting and/or antimicrobial activity)”, the “Target(s)” value is reported as “S. epidermidis; also recorded: E. faecalis; also recorded: C. jeikeium”.
The same measure, in the same setting: as for “1T-249 (VFSVLKHTTWPTRKQSWHDFISILEYSAFFALVIFIFDKLLTLGLAELLKRF; Peptide with targeting and/or antimicrobial activity) [Peptide 1T-249]”, the entry is “F. nucleatum; also recorded: S. sanguinis”; as for “1T-34 (AFWLNILLTLLGYIPGIVHAVYIIAKR; Peptide with targeting and/or antimicrobial activity) [Peptide 1T-34]”, “S. aureus; also recorded: S. epidermidis; also recorded: C. jeikeium; also recorded: C. xerosis; also recorded: C. striatum; also recorded: P. aeruginosa”.
Take “1T-219 (RNINVSATFITEKSLV; Peptide with targeting and/or antimicrobial activity) [Peptide 1T-219]”: the “Target(s)” value is “S. sanguinis”.
On to “1T-20 (PALVDLSNKEAVWAVLDDHS; Peptide with targeting and/or antimicrobial activity) [Peptide 1T-20]”, for which the “Target(s)” value is listed as “S. mutans; also recorded: P. aeruginosa”.
As to “1T-91 (TSVRPGAAGAAVPAGAAGAAGAGWRWP; Peptide with targeting and/or antimicrobial activity) [Peptide 1T-91]”, the “Target(s)” value is listed as “S. mitis; also recorded: S. mutans; also recorded: S. oralis; also recorded: S. sanguinis”.
Same read-out and setting: as for “1T-239 (ADDLLNKRLTDLIMENAETVKTIDLDNSD; Peptide with targeting and/or antimicrobial activity) [Peptide 1T-239]”, the entry is “A. naeslundii; also recorded: S. gordonii; also recorded: S. mitis; also recorded: S. mutans; also recorded: S. oralis; also recorded: S. sanguinis”.
Take “1T-188 (HRKDVYKK; Peptide with targeting and/or antimicrobial activity) [Peptide 1T-188]”: the “Target(s)” value is “S. sanguinis”.
Take “1T-126 (QGLARPVLRRIPL; Peptide with targeting and/or antimicrobial activity) [Peptide 1T-126]”: the “Target(s)” value is “S. gordonii; also recorded: S. mitis; also recorded: S. mutans”.
The same measure, in the same setting: with “1T-60 (YLTSLGLDAAEQAQGLLTILKG; Peptide with targeting and/or antimicrobial activity) [Peptide 1T-60]” the entry was “S. aureus; also recorded: S. epidermidis; also recorded: C. jeikeium; also recorded: C. striatum; also recorded: P. aeruginosa”.

Still in this assay, the particulars now being: microorganism(s) the targeting peptide binds; binding in aqueous buffers depending on peptide solubility, preferably 1x PBS.
For “PF-177 (VTSEPGIAHDIRLLPRAAAFR; Peptide with targeting and/or antimicrobial activity)”, the “Target(s)” value is “M. luteus and MRSA and E. faecalis and C. jeikeium”.
Same read-out and setting: as for “PF-334 (QQYLILDRM; Peptide with targeting and/or antimicrobial activity)”, the entry is “S. epidermidis; also recorded: C. difficile”; as for “PF-265 (MKTLFFPLFLIIFVLIIQALDQSYQKKIGISKPQKHPEFMQ; Peptide with targeting and/or antimicrobial activity)”, “S. epidermidis; also recorded: M. luteus; also recorded: A. baumannii”.
Regarding “PF-232 (FDQLYALEREGKLDELLA; Peptide with targeting and/or antimicrobial activity)”, the “Target(s)” value was “S. epidermidis; also recorded: M. luteus”.
In the case of “PF-247 (ETAASETH; Peptide with targeting and/or antimicrobial activity)”, the “Target(s)” value is on record as “S. epidermidis”.
Still for that read-out and setting: as for “PF-281 (SYNTYYNKLIHGQRTPDGM; Peptide with targeting and/or antimicrobial activity)”, the entry is “S. mutans; also recorded: E. coli”.
“HIKETR (Peptide with targeting and/or antimicrobial activity) [PF-222]”: the “Target(s)” value was “S. epidermidis”.
For the substance “PF-131 (RRAAARTKGNRR; Peptide with targeting and/or antimicrobial activity)”, the “Target(s)” value is “S. epidermidis and E. coli and MRSA and C. jeikeium”.
As for “PF-299 (LATKLKYEKEHKKM; Peptide with targeting and/or antimicrobial activity)”, the “Target(s)” value is listed as “B. subtilis”.

Still in this assay, the particulars now being: peptide binding in aqueous buffers varied by peptide solubility; preferably 1x PBS.
Turning to “PF-S015 (IENLERGARRPP; Peptide with targeting and/or antimicrobial activity)”, the “Target(s) (microorganisms bound by the targeting peptide)” value is “S. epidermidis and MRSA and C. jeikeium”.
As to “PF-C068 (LNLFASI; Peptide with targeting and/or antimicrobial activity)”, the “Target(s) (microorganisms bound by the targeting peptide)” value is given as “A. naeslundii; also recorded: F. nucleatum; also recorded: S. mutans”.
With “PF-773 (TLKESK; Peptide with targeting and/or antimicrobial activity)”, the “Target(s) (microorganisms bound by the targeting peptide)” value was “S. epidermidis; also recorded: C. albicans; also recorded: C. jeikeium”.
On to “PF-S007 (VVAGVVLLTALAVGSKRKEKKQIKEIQRLLAATR; Peptide with targeting and/or antimicrobial activity)”, for which the “Target(s) (microorganisms bound by the targeting peptide)” value was “S. epidermidis and MRSA”.
For “PF-S023 (MAEDERRALKRRTNRGRTRTRKRITV; Peptide with targeting and/or antimicrobial activity)”, the “Target(s) (microorganisms bound by the targeting peptide)” value is “S. epidermidis and MRSA”.
In the case of “PF-728 (AIGQEQDRREYYYYSGYPYYY; Peptide with targeting and/or antimicrobial activity)”, the “Target(s) (microorganisms bound by the targeting peptide)” value was “S. mutans; also recorded: E. coli”.
Take “PF-C271 (FFPSYYSIIITYF; Peptide with targeting and/or antimicrobial activity)”: the “Target(s) (microorganisms bound by the targeting peptide)” value is recorded as “A. naeslundii; also recorded: F. nucleatum; also recorded: P. gingivalis; also recorded: S. mutans; also recorded: T. denticola”.
Still for that read-out and setting: with “PF-799 (YTHYNTALSYALLLTNKSSVP; Peptide with targeting and/or antimicrobial activity)” the entry was “S. mutans”.
On the same count and under the same terms, as for “PF-732 (DRPSQTTHHTLSSSRITGPS; Peptide with targeting and/or antimicrobial activity)”, the entry is “E. coli”.
